Laboratory results published in paper PMC4595804, “A strategy to discover decoy chemokine ligands with an anti-inflammatory activity” (Scientific Reports, 2015).
Read-outs that look alike come from different tables or passages of the source.

How the values were obtained:
[1] = Solubility measurements (RP-HPLC); type: physicochemical; conditions: kinetic from dmso stock, dissolved at 10 µM, room temperature
Procedure: Standard stock solutions of compounds (10mM) were prepared in DMSO, and the molecules were dissolved at a concentration of 10µM in each of the three buffers. The samples were shaken for 1h at room temperature, and centrifuged at 15,000×g . The compounds concentration in the supernatant solutions was determined using RP-HPLC (Gilson) technique. The measurements were done with a UV detector set at 230nm. The measurements were carried out at room temperature using a C18 column ([…], 50×4.6mm, Phenomenex). The aqueous mobile phase contained 0.05% trifluoroacetic acid (solvent A, Sigma-Aldrich). The organic phase was HPLC grade acetonitrile (Sigma-Aldrich CHROMASOLV) (solvent B). The mobile phase flow rate was 2ml/min, and the following program was applied for the elution: 0–0.1min, 5% B; 0.1–2.6min, 5–95% B; 2.6–3.1min, 95% B; 3.1–3.3min, 95–5% B; and 3.3–6min, 5% B. To establish external calibration curves, increasing concentrations of each compound were prepared from standard stock solutions.
The chromatograms were recorded by injecting 20µl of each standard solution, and the calibration curves were plotted using peak areas. […]

CCL22 D58A = molecular target: T1, CCL22 D58A (Homo sapiens, UniProt O00626, D58A); assay: Calcium responses induced by chemokine mutant, neutraligand protocol; type: cell-based; conditions: 10 μM compound, 5 nM chemokine; remaining response
T1 construct: codes for the mature CCL17 or CCL22 with an N-terminal thioredoxin-hexahistidin (TRX- (His)6) tag; TRX-(His)6 (N, cleaved yes); made in house; host or cells: E. coli BL21 (DE3)
Procedure: (§1) Dye loaded cells were placed in the FlexStation 3 (Molecular Devices). Calcium mobilization was measured at 401 and 475 nm emission fluorescence after excitation at 355 nm. For the primary screening, the ligands (50μl of chemokine mixed with DMSO or test compounds) were added to the cells at 40 s, followed by digitonin addition (50μl) at 100 s to the cells. Molecules were screened at a final concentration of 2μg/ml with 5 nM CCL17 or CCL22. […] Raw fluorescence data (at 401 and 475 nm) were exported and the ratio 401/475 was calculated. The calcium response values (height of peak response over baseline) were determined. Hits were selected by comparing the response amplitude at the time of the chemokine addition ± test compound. The Z’ factor[29] was calculated according to the following equation: Z’ = 1-(3SD+ + 3SD−)/|Ave+ − Ave−|, where SD+ and Ave+ are respectively the standard deviation and the mean value of the positive controls (chemokine + DMSO), while SD− and Ave− are respectively the standard deviation and the mean value of the negative controls (HEPES-BSA (0.1%) mixed with DMSO, or cells mixed with C-021). Hit molecules were confirmed by performing concentration-response curves and their half maximal inhibitory concentration (IC50) values were calculated using the Kaleidagraph software.
(§2) and the denaturated chemokines (disulfite bonds reduced by β-mercaptoethanol). The
(§3) chemokine activity was then, tested in the in vitro assays. […]

CCL22 R80N = molecular target: T2, CCL22 R80N (Homo sapiens, UniProt O00626, R80N); assay: as above; type: cell-based; conditions: 10 μM compound, 5 nM chemokine; remaining response
T2 construct: codes for the mature CCL17 or CCL22 with an N-terminal thioredoxin-hexahistidin (TRX- (His)6) tag; TRX-(His)6 (N, cleaved yes); made in house; host or cells: E. coli BL21 (DE3)
Procedure: as §1, §2, §3

CCL22 W55A = molecular target: T3, CCL22 W55A (Homo sapiens, UniProt O00626, W55A); assay: as above; type: cell-based; conditions: 10 μM compound, 5 nM chemokine; remaining response
T3 construct: codes for the mature CCL17 or CCL22 with an N-terminal thioredoxin-hexahistidin (TRX- (His)6) tag; TRX-(His)6 (N, cleaved yes); made in house; host or cells: E. coli BL21 (DE3)
Procedure: as §1, §2, §3

HUT78 T cells = assay: WST-1 metabolic activity assay; type: cell-based, human; conditions: 30 μM (highest concentration), 72 h
Source text: WST-1 metabolic activity assay
The colorimetric WST-1 cell metabolic assay (Ozyme) was used to assess the cytotoxic effect of chemokine neutraligands. This is a cell viability test based on the enzymatic cleavage by the mitochondrial succinate-tetrazolium reductase of a tetrazolium salt, WST-1 (4-[3-(4-Iodophenyl)-2-(4-nitrophenyl)-2H-5-tetrazolio]-1,3 benzene disulfonate), into a water- […]
soluble formazan dye which can be detected by absorbance at 420-480nm. HUT78 T cells (or HaCat cells) were seeded on 24-well plates (200,000 cells per well) and were incubated […]
concentration ≤1% on cells). The background control was reserved as one well containing the culture medium only. The plates were incubated for 72h at 37°C. Three days later, the medium containing the neutraligands was removed, and WST-1 reagent (1:10 final dilution) (Ozyme) was added to each well for a 2h incubation at 37°C as the manufacturer’s recommendation. The plates were shaken and absorbance was measured at 450nm (reference wavelength 690nm) against the background control, using a multiwell plate reader (EnVision, Perkin Elmer). Assays were performed as three independent replicates. […]
(Heidelberg, Germany) and was cultured in Dulbecco’s Modified Eagle Medium (DMEM) (Invitrogen) supplemented with 10% fetal bovine serum (FBS) (Gibco-BRL), 100U/ml penicillin (Invitrogen), 100µg/ml streptomycin (Invitrogen) and 2mM L-glutamine (Invitrogen) at 37°C and 5% CO 2. The cells received fresh medium every other day and were subcultured every 10 days. HaCat cells were seeded in a 24-well plate (ESSEN Bioscience) at a density of 200,000 cells per well, and were allowed to grow until confluence. A scratch wound along the cell monolayer was created using the Essen woundmakerTM. Cells were washed twice with PBS to remove detached cells, and were treated with serum-free culture medium in the absence or presence of 100ng/ml chemokine (CCL22 or CCL17) preincubated with DMSO or […]
The molecules were also tested alone […]
without the chemokine. […] One […]
µg/ml of mitomycin C (Sigma-Aldrich) was added throughout the experiment in order to block cell proliferation. Once treated, the cells were immediately placed into the IncuCyteTM live-cell imaging, and the cell migration onto the wounded area was examined for 72h. Phase-contrast images acquired for each sample were captured every 2h (objective lens x10), and […]

CCL22 T56A = molecular target: T4, CCL22 T56A (Homo sapiens, UniProt O00626, T56A); assay: Calcium responses induced by chemokine mutant, neutraligand protocol; type: cell-based; conditions: 10 μM compound, 5 nM chemokine; remaining response
T4 construct: codes for the mature CCL17 or CCL22 with an N-terminal thioredoxin-hexahistidin (TRX- (His)6) tag; TRX-(His)6 (N, cleaved yes); made in house; host or cells: E. coli BL21 (DE3)

human monocytes = assay: Cytotoxicity in primary monocytes (Alamar Blue); type: cell-based; conditions: up to 250 μM, 24 h
Procedure: the wound closure was determined as the difference between wound width at times 0 and 72h. This experiment was repeated three times.
Human primary monocytes were isolated from buffy coats of healthy human blood donors and seeded in 24-well plates (500,000 cells/ml in 1ml) for COX-1/2 activity or 96-well plates for cell viability experiments.
Cells were seeded in 96 well plates (5,000 cells/well in 200µl) for cytotoxicity testing (Alamar […]
doses). After 24h, cytotoxicity was evaluated in the wells using the Alamar Blue method. NaF (250µg/ml) was used as a control in this experiment.
Cyclooxygenase (COX) activity
COX1 mediated prostaglandin E2 (PGE2) release. Monocytes were treated with arachidonic […]
were then collected for the determination of PGE2 by enzyme immunoassay (EIA) […]
COX2 mediated prostaglandin E2 (PGE2) release. Monocytes were incubated with LPS (10U/ml) for 24h to induce COX2 protein synthesis. After renewal of medium (serum free), […]
before AA treatment. The activity of COX2 was determined by measuring PGE2 (Cayman) in the supernatants by EIA. Aspirin (10µM) and diclofenac (10µM) were used as control

[2] = HEPES buffer, aqueous buffer, read-out: solubility in HEPES buffer
[3] = complete cell culture medium, plasma or biological fluid, read-out: solubility in the cell culture medium

T1 sequence (O00626 25-93 D58A): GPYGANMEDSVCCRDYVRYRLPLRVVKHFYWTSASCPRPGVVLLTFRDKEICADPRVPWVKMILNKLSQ
T2 sequence (O00626 25-93 R80N): as the sequence (O00626 25-93 D58A) above, with A34D, R56N counted along it
T4 sequence (O00626 25-93 T56A): as the sequence (O00626 25-93 D58A) above, with T32A, A34D counted along it
T3 sequence (O00626 25-93 W55A): as the sequence (O00626 25-93 D58A) above, with W31A, A34D counted along it

SMILES | solubility at 1 h [1, 2] [µM] | solubility at 1 h [1, 3] [µM] | calcium response induced by CCL22 D58A preincubated with compound (CCL22 D58A) | calcium response induced by CCL22 R80N preincubated with compound (CCL22 R80N) | calcium response induced by CCL22 W55A preincubated with compound (CCL22 W55A) | cytotoxic activity on HUT78 T cells (metabolic activity vs control non-treated cells) (HUT78 T cells) | calcium response induced by CCL22 T56A preincubated with compound (CCL22 T56A) | cell toxicity on human monocytes (Alamar Blue) (human monocytes)
O=C(OCC(O)CO)c1ccccc1O (stereo not shown) [GPN136, 2,3-dihydroxypropyl 2-hydroxybenzoate] | > 10 | > 10 | 76.0 ± 3.0% | 100.0 ± 3.0% | 46.0 ± 3.0% | no cytotoxic activity | 40.0 ± 6.0% | absence of cell toxicity
CC(C)=CCn1cnc2c1c(=O)n(C)c(=O)n2C [GPN279, 1,3-dimethyl-7-(3-methylbut-2-enyl)-1H-purine-2,6(3H, 7H)-dione] | > 10 | > 10 | neither inhibited WT nor CCL22 mutants | neither inhibited WT nor CCL22 mutants | neither inhibited WT nor CCL22 mutants | no cytotoxic activity | neither inhibited WT nor CCL22 mutants | absence of cell toxicity
